These results are taken from patent US7476511B2, “Method of detecting and analyzing paclitaxel-mimetic compounds” (priority 2001, dated 2009).

Read-outs that look alike come from different tables or passages of the source.

What is called solubility is the dissolved amount per volume that the medium holds. A lower solubility goes with a poorly soluble substance.

The test system of data set [1] is paclitaxel binding site of microtubules. Description: Competition test: displacement of Flutax-2 from microtubules, fluorescence anisotropy in microplate. Also on record: species or system bovine. As to conditions: for displacement of Flutax-2 / inhibition of the anisotropy of microtubule Flutax-2 / equilibrium binding constant to microtubules (numerical analysis of displacement isotherms): 50 nM Flutax-2/50 nM microtubule sites; for equilibrium binding constant to microtubules (numerical analysis of displacement isotherms): 25° C., mean of several determinations; for equilibrium constant K, best fit of competition isotherm (FIG. 2): GAB-GDP buffer at 25° C., 50 nM Flutax-2, 50 nM sites. How it is done:
Using Flutax-2 as a reference probe for the binding site to paclitaxel, the binding of other non-fluorescent ligands which displace Flutax-2 from the microtubules (see FIG. 1) can easily be measured by the changes in […] fluorescence properties in a competition test. The change of fluorescence anisotropy, which was analysed in 96-well plates with a microplate reader, was used. […] Baccatine III is equivalent to the taxane ring system, in which the group C-13 OH substitutes the paclitaxel side chain (see chemical structures in FIG. 2). The C-13 side chain has previously been considered as an essential determinant for recognition of paclitaxel.
Tubulin from bovine brain was purified and stored, and its concentration was measured as has been described (Andreu, J. M. et al.). Prior to its use it was balanced in 10 mM sodium phosphate, 1 mM EGTA, 0.1 mM GTP, 3.5M glycerol pH 6.8, with a Sephadex G-25 gravity column used cold, and it was centrifuged cold for 10 min at 50,000 in a TLA 100.4 rotor (Beckman) cold. The 50 μM tubulin was made 6 mM in MgCl2 (in other words, glycerol assembly buffer GAB, final pH 6.5) and 1 mM GTP, it was assembled in microtubules at 37° C. and these were gently cross-linked with 20 mM glutaraldehyde, the reaction being stopped with NaBH4 as has been described (Diaz, J. F. et al.). […] The cross-linked microtubules were dialysed against GAB-0.1 mM nucleotide (GTP or GDP) for more than 16 h, cold, in dialysis cassettes (Pierce) and were conserved frozen drop by drop in liquid nitrogen, or at 4° C. with 0.05% of sodium azide. This conservation method for the cross-linked microtubules by means of dialysis against a conservation and cryopreservation buffer is claimed in the present invention.
These competitive measurements were made with the polarisation plate reader. A solution of known concentrations of binding sites of microtubule and Flutax-2, both close to 50 nM, in GAB-GDP buffer, was freshly prepared starting from the concentrated reserves of cross-linked microtubules and Flutax-2. It was dispensed in aliquots of 200 μL (final volume) at room temperature in 96-well plates (Costar cat. No. 3599, the wells at the edges were not used). […] The ligands to test were added in small volumes of DMSO (concentration of final DMSO 2% v/v) in order to make the desired duplicated concentrations. A check was also made that the paclitaxel was not adsorbed onto the plate during the test, using ^3H-paclitaxel and a scintillation counter. The wells without protein and without Flutax-2 were included for calibration and background measurements respectively (see anisotropy measurements, above). The plates were stirred by rotation for 10 minutes and were measured twice within 30-90 minutes following balancing at 25° C. in the microplate reader. The anisotropy data of Flutax-2 was calculated with the evaluation software (BMG) and was traced against the total concentration of the competitor.
With the aim of measuring the binding affinity of a ligand (L) which displaces the reference ligand Flutax-2 from its microtubule binding site (S), unitary stoichiometry was assumed, with the fractional binding of Flutax-2 starting from the anisotropy being determined as [F]b/[S]0=[F]0(r−rmin)/[S]0(rmax−rmin) and the following expressions were applied K(F)=[SF]/[S] [F] [9] K(B)=[SB]/[S] [B] [10] [F]=[F]0−[SF] [11] [L]=[L]0−[SL] [12]
A general note: Fluorescence polarisation rises when a labelled molecule tumbles more slowly, as on binding a larger partner.

How the values of data set [2] were obtained: Standard concentrated solutions were prepared and were kept at −20° C. in a dry atmosphere. The paclitaxel (from the National Cancer Institute, Bethesda, Md.) was measured spectroscopically at 273 nm following dilution in methanol, using an extinction coefficient of 1,700 M^−1 cm^−1 (Diaz, J. F. and Andreu, J. M.) ^3H-paclitaxel (4 Ci mmol^−1) was obtained from Moravek Biochemicals (Brea, Calif.), Docetaxel (Taxotere) was supplied by Rhône-Poulenc Rorer (Antony, France). […] The methyl ester of the C-13 side chain of paclitaxel was supplied by E. Baloglu and D. G. I. Kingston of the Virginia Polytechnic Institute (Blacksburg, Va.).

For data set [3], the system named is paclitaxel binding site of microtubules. Briefly: Binding of Flutax-2 to cross-linked microtubules by fluorescence anisotropy. Also on record: species or system bovine. The conditions noted are these: 10 μM paclitaxel. How it is done:
The intensity of fluorescence of Flutax-2 changes very little with the binding to microtubules. There is a small change in the excitation maximum from 494 nm to 495 nm (isosbestic point at 500 nm ) and a blue shift in emission from 523 nm to 520 nm (not shown here; isosbestic point at 525 nm; Diaz, J. F. et al.). […] The excitation anisotropy spectrum of a 50 nM solution of microtubule sites/Flutax-2 was compared with the spectrum of a similar solution in which the binding sites were blocked by an excess of paclitaxel and of free Flutax-2. […] The anisotropy values determined for the 495 nm band (emission 520 nm; GAB buffer containing glycerol, 25° C.) were: free Flutax-2 (50 nm ), rmin=0.055; in the presence of microtubules blocked with paclitaxel, r=0.060; Flutax-2 specifically bound to the microtubules, rmax=0.29 (the last was determined by valuation of 50 nm Flutax-2 with growing concentrations of microtubules). These changes are consistent with a strong immobilisation of the fluorophore by the binding. […]
Tubulin from bovine brain was purified and stored, and its concentration was measured as has been described (Andreu, J. M. et al.). […]
Fluorescence spectra were obtained corrected with a Fluorolog-3-221 photon count instrument (Jobin Yvon-Spex, Longlumean, France), with an emission bandwidth of 5 nm and excitation of […] at 25° C. […] The multiple measurements of anisotropy were made with a PolarStar microplate reader (BMG Labtechnologies, Offenburg, Germany) at 25° C. The solutions were excited with 200 pulses of vertically polarised light (band-pass filter 485-P, 480-492 nm ) and the emission was simultaneously analysed with vertical and horizontal polarisation filters (band-pass 520-P, 515-550 nm ). […] The values of well blanks with microtubules and without Flutex-2 were subtracted from the values of fluorescence intensity (the blanks typically represented less than 4% of the measurement). […]

With `CC(=O)O[C@H]1C(=O)[C@@]2(C)[C@H]([C@H](OC(=O)c3ccccc3)[C@]3(O)C[C@H](O)C(C)=C1C3(C)C)[C@]1(OC(C)=O)CO[C@@H]1C[C@@H]2O` [baccatine III, Baccatine III], in data set [1], the “displacement of Flutax-2 / inhibition of the anisotropy of microtubule Flutax-2” value is recorded as “entirely inhibited”; the “equilibrium binding constant to microtubules (numerical analysis of displacement isotherms)” value (“equilibrium binding constant” for short) is reported as 1.5±0.5)×10^5 M^−1; the “equilibrium constant K, best fit of competition isotherm (FIG. 2)” value (shortened to “equilibrium constant K, best fit”) was 150000 M⁻¹. Further, in data set [1] (entire inhibition of anisotropy), the “total concentrations needed for inhibition relative to paclitaxel” value is “approximately 200 times”. In data set [2] (pH 6.5), the “solubility” value is reported as “soluble at the concentrations used”.

Consider `CC(=O)O[C@@]12CO[C@@H]1C[C@H](O)[C@@]1(C)C(=O)[C@H](O)C3=C(C)[C@@H](OC(=O)[C@H](O)[C@@H](NC(=O)OC(C)(C)C)c4ccccc4)C[C@@](O)([C@@H](OC(=O)c4ccccc4)[C@H]21)C3(C)C` [docetaxel, Docetaxel], for which, in data set [1], the “equilibrium binding constant” value was “(6.0±2.3)×10^7 M^−1” and the “equilibrium constant K, best fit” value worked out at 8e+07 M⁻¹. In data set [1] (on the basis of the individual experiments), the “ratio of affinities of docetaxel to paclitaxel” value is on record as 2.7±0.3.

Turning to `COC(=O)C(O)C(NC(=O)c1ccccc1)c1ccccc1` (stereo not drawn) [methyl ester of the C-13 side chain, methyl ester of the C-13 side chain of paclitaxel], in data set [1], the “displacement of Flutax-2 / inhibition of the anisotropy of microtubule Flutax-2” value was “inactive” and the “equilibrium binding constant” value is recorded as < 10^3 M^−1. Besides, the “K of simulated low affinity binding (line through data, FIG. 2)” value in data set [1] (simulation, data similar to controls) is 700 M⁻¹. The compound further came in with a solubility in data set [2] of at least 750 µM.

As to `CC(=O)O[C@H]1C(=O)[C@@]2(C)[C@H]([C@H](OC(=O)c3ccccc3)[C@]3(O)C[C@H](OC(=O)[C@H](O)[C@@H](NC(=O)c4ccccc4)c4ccccc4)C(C)=C1C3(C)C)[C@]1(OC(C)=O)CO[C@@H]1C[C@@H]2O` [paclitaxel], in data set [1], the “equilibrium binding constant” value was “(3.7±1.5)×10^7 M^−1” and the “equilibrium constant K, best fit” value turned out to be 3.2e+07 M⁻¹. Moreover, in data set [3], the “cancellation of the binding of Flutax-2 to microtubules” value is reported as “entirely annulled”.
